Assay results reported in US11498899B2, “Nitrone herbicides” (FMC Corporation, priority 2016, dated 2022).

Tests used:
rice (Oryza sativa) = assay: Test B flooded paddy test, visual rating 0-100 (0 no effect, 100 complete control); conditions: Flood, 250 g ai/ha, applied to paddy water, rated after 13 to 15 days
[1] = tested on: barnyardgrass (Echinochloa crus-galli); assay: Test B flooded paddy test, visual rating 0-100; conditions: Flood, 250 g ai/ha, applied to paddy water, rated after 13 to 15 days
[2] = tested on: pigweed (Amaranthus retroflexus); assay: Test A preemergence, visual injury rating 0-100; type: in vivo
kochia (Kochia scoparia) [3] = assay: Test A preemergence, visual injury rating 0-100; type: in vivo
[4] = tested on: ragweed (common ragweed, Ambrosia elatior); assay: Test A preemergence, visual injury rating 0-100; type: in vivo
[5] = tested on: foxtail, giant (giant foxtail, Setaria faberii); assay: Test A preemergence, visual injury rating 0-100; type: in vivo
[6] = tested on: ryegrass, Italian (Italian ryegrass, Lolium multiflorum); assay: Test A preemergence, visual injury rating 0-100; type: in vivo
[7] = tested on: pigweed (Amaranthus retroflexus); assay: Test A postemergence, visual injury rating 0-100; type: in vivo; conditions: 0 to 100 scale
corn (Zea mays) = assay: Test A postemergence, visual injury rating 0-100; type: in vivo; conditions: 0 to 100 scale
[8] = tested on: barnyardgrass (Echinochloa crus-galli); assay: Test A postemergence, visual injury rating 0-100; type: in vivo; conditions: 0 to 100 scale
kochia (Kochia scoparia) [9] = assay: Test A postemergence, visual injury rating 0-100; type: in vivo; conditions: 0 to 100 scale
[10] = tested on: blackgrass (Alopecurus myosuroides); assay: Test A postemergence, visual injury rating 0-100; type: in vivo; conditions: 0 to 100 scale
[11] = tested on: wheat (Triticum aestivum); assay: Test A postemergence, visual injury rating 0-100; type: in vivo; conditions: 0 to 100 scale
[12] = tested on: galium (catchweed bedstraw, Galium aparine); assay: Test A postemergence, visual injury rating 0-100; type: in vivo; conditions: 0 to 100 scale
[13] = tested on: ragweed (common ragweed, Ambrosia elatior); assay: Test A postemergence, visual injury rating 0-100; type: in vivo; conditions: 0 to 100 scale
[14] = tested on: foxtail, giant (giant foxtail, Setaria faberii); assay: Test A postemergence, visual injury rating 0-100; type: in vivo; conditions: 0 to 100 scale
[15] = tested on: ryegrass, Italian (Italian ryegrass, Lolium multiflorum); assay: Test A postemergence, visual injury rating 0-100; type: in vivo; conditions: 0 to 100 scale
[16] = tested on: barnyardgrass (Echinochloa crus-galli); assay: Test A preemergence, visual injury rating 0-100 (0 no effect, 100 complete control); type: in vivo
[17] = tested on: ducksalad (Heteranthera limosa); assay: Test B flooded paddy test, visual rating 0-100; conditions: Flood, 250 g ai/ha, applied to paddy water, rated after 13 to 15 days

CC1=[N+]([O-])C(C(=O)Nc2cccc(F)c2F)C(c2cc(F)c(F)c(F)c2)C1 (centres unmarked) [Compound 95]
Rice plant response rating (0 to 100 scale) (rice (Oryza sativa)): 0
Barnyardgrass plant response rating (0 to 100 scale) [1]: 80
Pigweed plant response rating (0 to 100 scale) ([2]; 125 g ai/ha): 20
Pigweed plant response rating (0 to 100 scale) ([2]; 500 g ai/ha): 80
Kochia plant response rating (0 to 100 scale) (kochia (Kochia scoparia) [3]; 125 g ai/ha): 0
Kochia plant response rating (0 to 100 scale) (kochia (Kochia scoparia) [3]; 500 g ai/ha): 70
Ragweed plant response rating (0 to 100 scale) ([4]; 125 g ai/ha): 20
Ragweed plant response rating (0 to 100 scale) ([4]; 500 g ai/ha): 80
Foxtail, Giant plant response rating (0 to 100 scale) ([5]; 125 g ai/ha): 90
Foxtail, Giant plant response rating (0 to 100 scale) ([5]; 500 g ai/ha): 100
Ryegrass, Italian plant response rating (0 to 100 scale) ([6]; 125 g ai/ha): 30
Ryegrass, Italian plant response rating (0 to 100 scale) ([6]; 500 g ai/ha): 90
Pigweed plant response rating ([7]; 125 g ai/ha): 0
Pigweed plant response rating ([7]; 500 g ai/ha): 20
Corn plant response rating (corn (Zea mays); 125 g ai/ha): 0
Corn plant response rating (corn (Zea mays); 500 g ai/ha): 50
Barnyardgrass plant response rating ([8]; 125 g ai/ha): 70
Barnyardgrass plant response rating ([8]; 500 g ai/ha): 80
Kochia plant response rating (kochia (Kochia scoparia) [9]; 125 g ai/ha): 30
Kochia plant response rating (kochia (Kochia scoparia) [9]; 500 g ai/ha): 50
Blackgrass plant response rating ([10]; 125 g ai/ha): 60
Blackgrass plant response rating ([10]; 500 g ai/ha): 70
Wheat plant response rating ([11]; 125 g ai/ha): 10
Wheat plant response rating ([11]; 500 g ai/ha): 60
Galium plant response rating ([12]; 125 g ai/ha): 0
Galium plant response rating ([12]; 500 g ai/ha): 50
Ragweed plant response rating ([13]; 125 g ai/ha): 0
Ragweed plant response rating ([13]; 500 g ai/ha): 20
Foxtail, Giant plant response rating ([14]; 125 g ai/ha): 80
Foxtail, Giant plant response rating ([14]; 500 g ai/ha): 90
Ryegrass, Italian plant response rating ([15]; 125 g ai/ha): 40
Ryegrass, Italian plant response rating ([15]; 500 g ai/ha): 70
Barnyardgrass plant response rating (0 to 100 scale) ([16]; 125 g ai/ha): 90
Barnyardgrass plant response rating (0 to 100 scale) ([16]; 500 g ai/ha): 90
Ducksalad plant response rating (0 to 100 scale) [17]: 100

COc1cc(OC)cc(C2CC(C)=[N+]([O-])C2C(=O)Nc2cccc(F)c2F)c1 (centres unmarked) [Compound 96]
Rice plant response rating (0 to 100 scale) (rice (Oryza sativa)): 0
Barnyardgrass plant response rating (0 to 100 scale) [1]: 0
Pigweed plant response rating (0 to 100 scale) ([2]; 125 g ai/ha): 0
Pigweed plant response rating (0 to 100 scale) ([2]; 500 g ai/ha): 10
Kochia plant response rating (0 to 100 scale) (kochia (Kochia scoparia) [3]; 125 g ai/ha): 0
Kochia plant response rating (0 to 100 scale) (kochia (Kochia scoparia) [3]; 500 g ai/ha): 40
Ragweed plant response rating (0 to 100 scale) ([4]; 125 g ai/ha): 0
Ragweed plant response rating (0 to 100 scale) ([4]; 500 g ai/ha): 0
Foxtail, Giant plant response rating (0 to 100 scale) ([5]; 125 g ai/ha): 90
Foxtail, Giant plant response rating (0 to 100 scale) ([5]; 500 g ai/ha): 90
Ryegrass, Italian plant response rating (0 to 100 scale) ([6]; 125 g ai/ha): 0
Ryegrass, Italian plant response rating (0 to 100 scale) ([6]; 500 g ai/ha): 0
Pigweed plant response rating ([7]; 125 g ai/ha): 0
Pigweed plant response rating ([7]; 500 g ai/ha): 0
Corn plant response rating (corn (Zea mays); 125 g ai/ha): 10
Corn plant response rating (corn (Zea mays); 500 g ai/ha): 70
Barnyardgrass plant response rating ([8]; 125 g ai/ha): 60
Barnyardgrass plant response rating ([8]; 500 g ai/ha): 90
Kochia plant response rating (kochia (Kochia scoparia) [9]; 125 g ai/ha): 0
Kochia plant response rating (kochia (Kochia scoparia) [9]; 500 g ai/ha): 0
Blackgrass plant response rating ([10]; 125 g ai/ha): 40
Blackgrass plant response rating ([10]; 500 g ai/ha): 90
Wheat plant response rating ([11]; 125 g ai/ha): 0
Wheat plant response rating ([11]; 500 g ai/ha): 10
Galium plant response rating ([12]; 125 g ai/ha): 0
Galium plant response rating ([12]; 500 g ai/ha): 20
Ragweed plant response rating ([13]; 125 g ai/ha): 0
Ragweed plant response rating ([13]; 500 g ai/ha): 30
Foxtail, Giant plant response rating ([14]; 125 g ai/ha): 40
Foxtail, Giant plant response rating ([14]; 500 g ai/ha): 90
Ryegrass, Italian plant response rating ([15]; 125 g ai/ha): 0
Ryegrass, Italian plant response rating ([15]; 500 g ai/ha): 60
Barnyardgrass plant response rating (0 to 100 scale) ([16]; 125 g ai/ha): 90
Barnyardgrass plant response rating (0 to 100 scale) ([16]; 500 g ai/ha): 100
Ducksalad plant response rating (0 to 100 scale) [17]: 0

CC1=[N+]([O-])C(C(=O)Nc2cccc(F)c2F)C(c2ccccc2)C1 (centres unmarked) [Compound 97]
Rice plant response rating (0 to 100 scale) (rice (Oryza sativa)): 0
Barnyardgrass plant response rating (0 to 100 scale) [1]: 70
Pigweed plant response rating (0 to 100 scale) ([2]; 125 g ai/ha): 0
Pigweed plant response rating (0 to 100 scale) ([2]; 500 g ai/ha): 60
Kochia plant response rating (0 to 100 scale) (kochia (Kochia scoparia) [3]; 125 g ai/ha): 50
Kochia plant response rating (0 to 100 scale) (kochia (Kochia scoparia) [3]; 500 g ai/ha): 60
Ragweed plant response rating (0 to 100 scale) ([4]; 125 g ai/ha): 40
Ragweed plant response rating (0 to 100 scale) ([4]; 500 g ai/ha): 90
Foxtail, Giant plant response rating (0 to 100 scale) ([5]; 125 g ai/ha): 90
Foxtail, Giant plant response rating (0 to 100 scale) ([5]; 500 g ai/ha): 90
Ryegrass, Italian plant response rating (0 to 100 scale) ([6]; 125 g ai/ha): 20
Ryegrass, Italian plant response rating (0 to 100 scale) ([6]; 500 g ai/ha): 90
Pigweed plant response rating ([7]; 125 g ai/ha): 0
Pigweed plant response rating ([7]; 500 g ai/ha): 0
Corn plant response rating (corn (Zea mays); 125 g ai/ha): 0
Corn plant response rating (corn (Zea mays); 500 g ai/ha): 0
Barnyardgrass plant response rating ([8]; 125 g ai/ha): 70
Barnyardgrass plant response rating ([8]; 500 g ai/ha): 90
Kochia plant response rating (kochia (Kochia scoparia) [9]; 125 g ai/ha): 0
Kochia plant response rating (kochia (Kochia scoparia) [9]; 500 g ai/ha): 50
Blackgrass plant response rating ([10]; 125 g ai/ha): 30
Blackgrass plant response rating ([10]; 500 g ai/ha): 70
Wheat plant response rating ([11]; 125 g ai/ha): 10
Wheat plant response rating ([11]; 500 g ai/ha): 30
Galium plant response rating ([12]; 125 g ai/ha): 30
Galium plant response rating ([12]; 500 g ai/ha): 50
Ragweed plant response rating ([13]; 125 g ai/ha): 0
Ragweed plant response rating ([13]; 500 g ai/ha): 20
Foxtail, Giant plant response rating ([14]; 125 g ai/ha): 60
Foxtail, Giant plant response rating ([14]; 500 g ai/ha): 90
Ryegrass, Italian plant response rating ([15]; 125 g ai/ha): 0
Ryegrass, Italian plant response rating ([15]; 500 g ai/ha): 50
Barnyardgrass plant response rating (0 to 100 scale) ([16]; 125 g ai/ha): 90
Barnyardgrass plant response rating (0 to 100 scale) ([16]; 500 g ai/ha): 100
Ducksalad plant response rating (0 to 100 scale) [17]: 100

CC1=[N+]([O-])C(C(=O)Nc2cccc(F)c2F)C(c2cc(C(F)(F)F)ccc2C)C1 (centres unmarked) [Compound 98]
Rice plant response rating (0 to 100 scale) (rice (Oryza sativa)): 0
Barnyardgrass plant response rating (0 to 100 scale) [1]: 55
Pigweed plant response rating (0 to 100 scale) ([2]; 125 g ai/ha): 0
Pigweed plant response rating (0 to 100 scale) ([2]; 500 g ai/ha): 70
Kochia plant response rating (0 to 100 scale) (kochia (Kochia scoparia) [3]; 125 g ai/ha): 10
Kochia plant response rating (0 to 100 scale) (kochia (Kochia scoparia) [3]; 500 g ai/ha): 80
Ragweed plant response rating (0 to 100 scale) ([4]; 125 g ai/ha): 20
Ragweed plant response rating (0 to 100 scale) ([4]; 500 g ai/ha): 80
Foxtail, Giant plant response rating (0 to 100 scale) ([5]; 125 g ai/ha): 90
Foxtail, Giant plant response rating (0 to 100 scale) ([5]; 500 g ai/ha): 100
Ryegrass, Italian plant response rating (0 to 100 scale) ([6]; 125 g ai/ha): 90
Ryegrass, Italian plant response rating (0 to 100 scale) ([6]; 500 g ai/ha): 100
Pigweed plant response rating ([7]; 125 g ai/ha): 0
Pigweed plant response rating ([7]; 500 g ai/ha): 30
Corn plant response rating (corn (Zea mays); 125 g ai/ha): 60
Corn plant response rating (corn (Zea mays); 500 g ai/ha): 80
Barnyardgrass plant response rating ([8]; 125 g ai/ha): 70
Barnyardgrass plant response rating ([8]; 500 g ai/ha): 90
Kochia plant response rating (kochia (Kochia scoparia) [9]; 125 g ai/ha): 0
Kochia plant response rating (kochia (Kochia scoparia) [9]; 500 g ai/ha): 0
Blackgrass plant response rating ([10]; 125 g ai/ha): 70
Blackgrass plant response rating ([10]; 500 g ai/ha): 70
Wheat plant response rating ([11]; 125 g ai/ha): 60
Wheat plant response rating ([11]; 500 g ai/ha): 70
Galium plant response rating ([12]; 125 g ai/ha): 0
Galium plant response rating ([12]; 500 g ai/ha): 40
Ragweed plant response rating ([13]; 125 g ai/ha): 30
Ragweed plant response rating ([13]; 500 g ai/ha): 30
Foxtail, Giant plant response rating ([14]; 125 g ai/ha): 80
Foxtail, Giant plant response rating ([14]; 500 g ai/ha): 90
Ryegrass, Italian plant response rating ([15]; 125 g ai/ha): 40
Ryegrass, Italian plant response rating ([15]; 500 g ai/ha): 70
Barnyardgrass plant response rating (0 to 100 scale) ([16]; 125 g ai/ha): 90
Barnyardgrass plant response rating (0 to 100 scale) ([16]; 500 g ai/ha): 90
Ducksalad plant response rating (0 to 100 scale) [17]: 100
